The text below walks through data of patent US5945430A, “Aminooxyamide tricyclic inhibitors of farnesyl-protein transferase” (Schering Corporation, priority 1998, dated 1999).

By IC50 is commonly meant the concentration needed to halve the response being measured.

For experiment [1], the target named is T1, H-ras FPT (Ras-CVLS farnesylation by partially purified rat brain farnesyl protein transferase (FPT)) (Rattus norvegicus, UniProt Q02293+Q04631).
T1 construct: partially purified rat brain farnesyl protein transferase (FPT); from tissue; host or cells: rat brain, partially purified
The experiment in a line: FPT IC50 (inhibition of farnesyl protein transferase, in vitro enzyme assay). The experiment is classed as biochemical.

For experiment [2], the system named is Ras processing in COS cells. Nature of the experiment: COS IC50, cell-based assay: COS cells activity inhibition of Ras processing. Here is the method:
2. Cell-based assay. COS IC50 values refer to the COS cells activity inhibition of Ras processing, are determined by the methods disclosed in […] or WO 95/10516.

In experiment [1], `O=C(NOCC(=O)N1CCC([C@H]2c3ncc(Br)cc3CCc3cc(Cl)cc(Br)c32)CC1)c1ccccc1` [Example 1] yielded an IC50 of 27 nM.

On to `O=C(CO/N=C/c1cc[n+]([O-])cc1)N1CCC([C@H]2c3ncc(Br)cc3CCc3cc(Cl)cc(Br)c32)CC1` [Example 6], for which it took 690 nM to reach half-maximal inhibition in experiment [2] (IC50).

In turn, `NOCC(=O)N1CCC([C@H]2c3ncc(Br)cc3CCc3cc(Cl)cc(Br)c32)CC1` [Example 15, (+)-1-[(aminooxy)acetyl]-4-(3,10-dibromo-8-chloro-6,11-dihydro-5H-benzo[5,6]cyclohepta[1,2-b]pyridin-11(R)-yl)piperidine] gave an IC50 in experiment [1] of 32 nM.
